Laboratory results as given in paper PMC11364104, “Discovery of SARS-CoV-2 papain-like protease (PL^pro) inhibitors with efficacy in a murine infection model” (Science Advances, 2024).
Values after ≈ are worked out from the molar mass of the structure shown.

Legend:
[1] = Thermodynamic solubility; assay type: physicochemical; details: pH 7.4, aqueous buffer, thermodynamic from solid
[2] = Monkey pharmacokinetics; assay type: in vivo; details: plasma, Male Cynomolgus Monkey, 1.0 mg/kg iv, solution, mean n=2
Description: from Vital River (Beijing, China) and were typically 7-9 weeks of age at the time of dosing.
During the pharmacokinetic studies all animals were housed individually. Access to food and water was provided ad libitum (i.e., subjects were dosed in the fed state). In the instances where oral (po) dose was administered in the fed state, with ad libitum access to food and water. Compounds were administered intravenously (iv) via the tail vein (n = 2) dosed as a solution (1 mg/kg, 3 ml/kg) or via oral gavage as a solution (10 mg/kg, 10 ml/kg). Dosing solutions were prepared immediately before dosing. The composition of each dosing vehicle […]
Serial blood samples were collected via the jugular vein cannula at predetermined timepoints after dosing. Animals were monitored for pain or distress throughout the study, with at least daily monitoring during normal husbandry prior to study start. At the completion of the study, animals were euthanized by overdose of inhaled carbon dioxide. Blood samples were collected into tubes containing K2EDTA and stored on ice until centrifugation to obtain plasma, which was stored frozen at - 20 °C or lower.
Dog pharmacokinetic studies were done at Pfizer (Groton, CT). All procedures performed on beagle dogs were in accordance with regulations and established guidelines and were reviewed and approved by an Institutional Animal Care and Use Committee through an ethical review process. Male Beagle dogs were purchased from Marshall Bioresources (North Rose, NY); subjects 3 years of age were used in pharmacokinetics studies. For each study (n=2), compounds were dosed iv by cephalic vein as a solution (0.5 mg/kg, 1 mL/kg) or via oral gavage as a suspension (3 mg/kg, 5 mL/kg). In the instances where oral (po) dose was administered in the fed state, dogs were fed a couple hours before dosing. In the instances where the IV dose was administered in the fasted state, dogs were fasted over night and fed 4 hours post dose. Subjects were monitored for pain or distress throughout the study followed by at least daily monitoring while off study. The iv dosing vehicle was optimized such that the compounds were in solution and stable for at least 24 h. Serial blood samples were collected via the jugular vein at predefined time points post-dose. […]
Monkey pharmacokinetic studies were conducted at Pfizer (Groton, CT). […] Subjects were monitored for pain or distress throughout the study followed by at least daily monitoring while off study. […]
Plasma samples were processed using protein precipitation with 50:50 acetonitrile: methanol containing terfenadine (5 ng/ml) as an internal standard followed by quantitation against a standard curve (0.1-1000 ng/ml) prepared in blank plasma. Quantitation of analyte in plasma samples was done using LC-MS/MS. […]

[3] = test system: Human Chymotrypsin; assay type: biochemical
[4] = target: T1, Human Caspase 2 (Homo sapiens, UniProt P42575); assay: biochemical
T1 construct: assay run at Reaction Biology Corporation
T1 sequence (P42575 170-325 limits assumed): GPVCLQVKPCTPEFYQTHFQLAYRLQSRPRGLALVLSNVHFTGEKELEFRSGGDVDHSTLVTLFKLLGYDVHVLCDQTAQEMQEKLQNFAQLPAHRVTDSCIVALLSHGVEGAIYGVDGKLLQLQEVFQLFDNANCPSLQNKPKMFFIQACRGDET
T1 sequence (P42575 348-452 limits assumed): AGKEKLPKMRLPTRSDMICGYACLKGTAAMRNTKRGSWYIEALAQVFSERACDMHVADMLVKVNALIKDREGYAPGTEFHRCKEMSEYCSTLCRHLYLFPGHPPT

[5] = target: T2, Human Cathepsin L (Homo sapiens, UniProt P07711); assay: biochemical
T2 construct: assay run at Reaction Biology Corporation
T2 sequence (P07711 114-333): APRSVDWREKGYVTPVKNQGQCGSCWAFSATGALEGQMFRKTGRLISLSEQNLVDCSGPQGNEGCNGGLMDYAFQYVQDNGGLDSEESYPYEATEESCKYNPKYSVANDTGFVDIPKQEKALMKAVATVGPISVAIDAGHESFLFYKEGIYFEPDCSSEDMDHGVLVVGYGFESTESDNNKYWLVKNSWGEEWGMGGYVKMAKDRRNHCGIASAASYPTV

[6] = target: T3, Adenosine A2a (Homo sapiens, UniProt P29274); assay: CEREP functional agonism; assay type: cell-based; details: 30 µM
T3 construct: purchased Eurofins Cerep
T3 sequence (P29274 whole entry): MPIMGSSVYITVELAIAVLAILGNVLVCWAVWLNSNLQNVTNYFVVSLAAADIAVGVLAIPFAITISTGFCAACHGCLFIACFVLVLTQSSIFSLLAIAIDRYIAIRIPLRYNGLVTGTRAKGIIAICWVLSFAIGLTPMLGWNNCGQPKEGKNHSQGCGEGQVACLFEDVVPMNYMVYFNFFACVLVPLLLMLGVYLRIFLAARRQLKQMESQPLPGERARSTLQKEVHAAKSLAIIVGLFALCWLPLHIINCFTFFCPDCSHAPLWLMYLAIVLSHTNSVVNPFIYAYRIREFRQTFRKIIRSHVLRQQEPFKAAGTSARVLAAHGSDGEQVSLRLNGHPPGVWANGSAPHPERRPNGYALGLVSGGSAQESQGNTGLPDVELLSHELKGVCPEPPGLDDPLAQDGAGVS

[7] = target: T4, Src Kinase (Homo sapiens, UniProt P12931); assay: CEREP kinase inhibition; assay type: biochemical
T4 construct: purchased Eurofins Cerep
T4 sequence (P12931 whole entry): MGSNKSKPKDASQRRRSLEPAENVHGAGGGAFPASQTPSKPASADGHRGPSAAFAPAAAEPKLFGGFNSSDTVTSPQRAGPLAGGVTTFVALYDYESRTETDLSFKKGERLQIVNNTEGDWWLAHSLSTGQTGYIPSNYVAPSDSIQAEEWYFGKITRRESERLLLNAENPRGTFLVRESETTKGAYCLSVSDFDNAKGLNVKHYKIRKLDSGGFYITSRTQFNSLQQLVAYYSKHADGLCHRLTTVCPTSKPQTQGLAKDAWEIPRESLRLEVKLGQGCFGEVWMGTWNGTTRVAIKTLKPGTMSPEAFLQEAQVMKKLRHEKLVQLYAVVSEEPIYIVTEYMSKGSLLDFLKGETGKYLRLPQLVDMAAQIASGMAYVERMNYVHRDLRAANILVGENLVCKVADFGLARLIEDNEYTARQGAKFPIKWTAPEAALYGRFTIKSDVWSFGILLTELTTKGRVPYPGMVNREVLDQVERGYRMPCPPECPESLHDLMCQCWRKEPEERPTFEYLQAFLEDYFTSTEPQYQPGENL

[8] = target: T5, Norepinephrine Transporter (Homo sapiens, UniProt P23975); assay: CEREP transporters-binding
T5 construct: purchased Eurofins Cerep
T5 sequence (P23975 whole entry): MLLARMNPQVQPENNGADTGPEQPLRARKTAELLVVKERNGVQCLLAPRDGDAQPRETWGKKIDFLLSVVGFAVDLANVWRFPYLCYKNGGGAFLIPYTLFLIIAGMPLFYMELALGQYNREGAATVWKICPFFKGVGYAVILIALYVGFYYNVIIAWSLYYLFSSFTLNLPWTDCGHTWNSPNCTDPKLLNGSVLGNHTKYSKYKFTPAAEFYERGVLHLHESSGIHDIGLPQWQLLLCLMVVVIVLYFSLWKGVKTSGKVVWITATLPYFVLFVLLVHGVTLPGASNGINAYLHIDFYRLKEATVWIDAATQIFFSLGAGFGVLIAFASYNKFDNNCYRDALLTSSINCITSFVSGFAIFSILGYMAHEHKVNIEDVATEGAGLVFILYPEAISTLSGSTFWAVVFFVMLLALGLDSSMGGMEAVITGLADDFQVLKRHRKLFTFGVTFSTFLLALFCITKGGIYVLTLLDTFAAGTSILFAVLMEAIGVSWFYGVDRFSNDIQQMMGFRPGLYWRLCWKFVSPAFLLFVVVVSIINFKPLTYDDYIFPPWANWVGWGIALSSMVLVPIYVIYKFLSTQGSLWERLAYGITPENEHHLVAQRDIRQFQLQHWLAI

[9] = target: T6, Serotonin Transporter (Homo sapiens, UniProt P31645); assay: CEREP transporters-binding
T6 construct: purchased Eurofins Cerep
T6 sequence (P31645 whole entry): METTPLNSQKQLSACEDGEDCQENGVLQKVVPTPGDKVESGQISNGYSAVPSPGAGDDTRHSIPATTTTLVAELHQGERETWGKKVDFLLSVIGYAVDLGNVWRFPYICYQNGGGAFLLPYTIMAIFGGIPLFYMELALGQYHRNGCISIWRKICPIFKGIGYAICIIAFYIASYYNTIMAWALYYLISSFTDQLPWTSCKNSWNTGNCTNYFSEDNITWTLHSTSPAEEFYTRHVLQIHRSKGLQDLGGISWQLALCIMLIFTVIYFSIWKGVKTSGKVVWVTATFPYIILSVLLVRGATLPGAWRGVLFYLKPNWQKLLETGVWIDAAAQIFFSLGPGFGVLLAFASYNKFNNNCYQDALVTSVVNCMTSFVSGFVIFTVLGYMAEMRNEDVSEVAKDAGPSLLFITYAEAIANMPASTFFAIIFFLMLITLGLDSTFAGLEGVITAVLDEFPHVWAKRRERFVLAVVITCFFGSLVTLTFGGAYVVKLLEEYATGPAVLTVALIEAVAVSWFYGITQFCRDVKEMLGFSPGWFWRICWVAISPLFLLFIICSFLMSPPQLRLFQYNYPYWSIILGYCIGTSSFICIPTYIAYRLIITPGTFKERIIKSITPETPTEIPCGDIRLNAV

[10] = test system: L-Type Ca (Nifedipine); assay: CEREP ion channel-binding; details: 30 µM
[11] = test system: L-Type Ca (Diltiazem); assay: CEREP ion channel-binding; details: 30 µM
[12] = test system: GABAa (benzodiazepine Site); assay: CEREP ion channel-binding; details: 30 µM
[13] = target: T7, Serotonin 3 (Homo sapiens, UniProt P46098); assay: CEREP ion channel-binding
T7 construct: purchased Eurofins Cerep
T7 sequence (P46098 24-478): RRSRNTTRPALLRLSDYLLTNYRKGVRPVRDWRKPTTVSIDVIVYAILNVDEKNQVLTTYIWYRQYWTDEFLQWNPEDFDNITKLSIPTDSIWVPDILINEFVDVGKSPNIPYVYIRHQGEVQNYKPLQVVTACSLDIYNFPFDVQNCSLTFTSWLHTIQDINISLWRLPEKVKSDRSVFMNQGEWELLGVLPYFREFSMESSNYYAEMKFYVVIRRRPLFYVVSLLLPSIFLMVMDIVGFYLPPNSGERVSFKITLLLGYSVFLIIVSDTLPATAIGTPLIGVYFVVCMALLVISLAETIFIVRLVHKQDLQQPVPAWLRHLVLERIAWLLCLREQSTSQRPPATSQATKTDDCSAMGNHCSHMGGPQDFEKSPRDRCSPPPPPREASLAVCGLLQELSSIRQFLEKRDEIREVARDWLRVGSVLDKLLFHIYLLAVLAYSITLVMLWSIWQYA

[14] = test system: Sodium (Site 2); assay: CEREP ion channel-binding; details: 30 µM
[15] = in vitro; details: mouse, plasma
[16] = in vitro; details: both, human, plasma
[17] = target: CYP3A4 (Homo sapiens, UniProt P08684); assay: biochemical
Chain of CYP3A4 (P08684 whole entry): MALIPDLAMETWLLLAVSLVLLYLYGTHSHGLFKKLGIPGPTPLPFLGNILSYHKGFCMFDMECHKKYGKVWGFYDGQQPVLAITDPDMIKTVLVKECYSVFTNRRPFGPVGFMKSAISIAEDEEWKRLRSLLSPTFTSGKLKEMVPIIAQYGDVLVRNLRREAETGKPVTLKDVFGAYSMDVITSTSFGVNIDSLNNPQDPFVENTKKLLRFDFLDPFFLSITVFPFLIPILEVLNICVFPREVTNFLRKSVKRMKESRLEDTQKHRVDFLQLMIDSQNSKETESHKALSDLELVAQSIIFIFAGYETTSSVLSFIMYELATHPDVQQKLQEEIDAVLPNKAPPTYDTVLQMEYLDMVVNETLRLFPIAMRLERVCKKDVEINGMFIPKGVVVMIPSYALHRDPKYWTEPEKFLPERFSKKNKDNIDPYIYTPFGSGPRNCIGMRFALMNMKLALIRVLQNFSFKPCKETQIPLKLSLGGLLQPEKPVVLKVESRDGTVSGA

[18] = In vitro genetic toxicity (bacterial reverse mutation assay); details: in vitro genetic toxicity studies; listed as PF-07957472

Cc1ccc(N2CCN(C)CC2)cc1C(=O)NC1(c2cc(-c3cnn(C)c3)nc3ccccc23)CC1 [Compound 4]
solubility thermodynamic [1]: 541 µM (≈ 260 µg/mL)
AUC(0-inf) [2]: 1600 ng·h/mL
half-life [2]: 3.56 h
clearance ([2]; read-out: CLp): 10.7 mL/min/kg
Vd ([2]; read-out: Vdss): 2.09 L/kg
IC50 [3]: > 100 µM
IC50 [4]: > 100 µM
IC50 [5]: > 100 µM
% response [6]: 0%
inhibition at 30 µM [7]: -5%
inhibition at 30 µM [8]: -6%
inhibition at 30 µM [9]: 8%
% inhibition [10]: -6%
% inhibition [11]: 10%
% inhibition [12]: 7%
inhibition at 30 µM [13]: -10%
% inhibition [14]: -15%
fraction unbound [15]: 0.093
fraction unbound [16]: 0.109
IC50 [17]: > 30 µM
In vitro genotoxicity screen [18]: not mutagenic or clastogenic
